Measured values taken from US20090221590A1, “SALT OF CD 80 ANTAGONIST” (MEDIGENE LIMITED, priority 2006, published 2009).
Values after ≈ are worked out from the molar mass of the structure shown.

Assay: Solubility Assay (saturation, shaker 24 hours, supernatant analysed by HPLC)
Conditions: for Solubility (mg/ml) in ethanol: solvent ethanol; for Solubility (mg/ml) in ethanol / Solubility (mg/ml) in water: 25 deg C./60% relative humidity, 24 hours; for Solubility (mg/ml) in water: solvent water; for solubility at 24 h: 25 °C, thermodynamic from solid
Experimental: 10 mg of the test compound was weighed into a vial, and 1 ml of solvent was added. If the sample dissolved immediately, as evidenced by a formation of a clear solution, more of the test material was added and the vial sonicated for 15 mins. This procedure was repeated until no more test compound could be dissolved, as evidenced by formation of a suspension. The vial containing the suspension was then was sonicated for 15 mins, and placed on a shaker at 25 deg C./60% relative humidity for 24 hours. On removal from the shaker, the sample was centrifuged and the supernatant analysed by HPLC.

Molecule	Solubility (mg/ml) in ethanol [mg/mL]	Solubility (mg/ml) in water [mg/mL]	solubility at 24 h (ethanol, organic solvent or mixture) [µg/mL]	solubility at 24 h (water) [µg/mL]	aqueous solubility (in words) (water, qualitative statement)
[Mg] [Magnesium]	<5	<5			
O=C(NCC(F)F)c1ccc(-n2[nH]c3c(nnc4c(F)cccc43)c2=O)cc1 [None (free acid), 4-(6-fluoro-3-oxo-1,3-dihydro-pyrazolo[4,3-c]cinnolin-2-yl)-N-(2,2-difluoro-ethyl)-benzamide]			2100 (≈ 5.42 mM)	< 500	poorly soluble in water
[K+] [Potassium]	<5	<5			
Sodium	7.1	<5			
